Positions of bridges follow the written chain, without caps; N, C: chain ends. Residues, ends and D or L forms follow the SMILES beside them. No end group written: not given here.

Data set [1] concerns cell-cell fusion between H9/HIV-1IIIB and MT-2 cells. Conditions: IC50 comparison with CP24.
Description: The inhibitory activity of peptides against cell-cell fusion between H9/HIV-1IIIB and MT-2 cells was detected, as described previously [3, 81]. Briefly, H9/HIV-1IIIB cells were labeled with a fluorescent reagent, Calcein AM (Molecular Probes, Inc., Eugene, Oregon), and then incubated with MT-2 cells (ratio = 1:10) in a 96-well plate at 37 °C for 2 h in the presence of a test peptide at graded concentrations or PBS as a control. The fused and unfused Calcein-labeled HIV-1-infected cells were counted under an inverted fluorescence microscope (Zeiss, Germany). Three fields of each well were counted and the percentage of inhibition of cell fusion by peptides was calculated as described previously [81]. The IC50 values of fusion were calculated using the CalcusSn software [36] and the inhibition curves of best fit were generated with GraphPad Prism.
Data set [2] has as its system HIV-1 IIIB. Put plainly: Ex vivo anti-HIV-1 activity of sera from treated mice. It is filed as in vivo. The following applies: BALB/c mice, i.p., N6 3.2 mg/kg and/or IBP-CP24 1.8 mg/kg. The protocol:
The ex vivo anti-HIV-1 activity of a peptide or a bNAb or their combination in serum samples from mice treated with the peptide or bNAb was detected as described previously. […] Sera were collected from these mice at 2 and 8 h post-injection and tested for their inhibitory activity against HIV-1IIIB infection as described above. The dilution fold of the serum causing 50% inhibition (DF-IC50) was calculated.

In data set [3] the target is T1, 6-HB formation between N36 and C34 (Human immunodeficiency virus type 1 group M subtype B, UniProt P04578).
T1 construct: purchased KareBay Biochem, Inc; host or cells: solid-phase chemical synthesis
T1 sequence (P04578 546-581): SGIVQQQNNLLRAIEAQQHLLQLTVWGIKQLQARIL
The experiment in a line: Inhibition of 6-HB formation, sandwich ELISA. Conditions: N36 and C34 1 μM each, triplicate. The format is biochemical, HIV-1. The protocol: The inhibitory activity of peptides on 6-HB formation was measured by the sandwich ELISA method, as previously described. Briefly, a 96-well polystyrene plate (Costar, Corning Inc., Corning, NY) was coated with rabbit anti-gp41 (NY-364) (2 μg/mL in 0.1 M Tris, pH 8.8). […] The mixture was added to the NY-364-coated plate, followed by incubation at room temperature for 60 min and washed three times with a washing buffer (PBS containing 0.1% Tween 20). The monoclonal antibody NC-1(1 μg/mL) was added to the plate and incubated at room temperature for 60 min, followed by washing three times. Rabbit anti-mouse IgG-HRP (Sigma) (1:3000 diluted) was added to each well and incubated at 37 °C for 1 h. The substrate 3, 3’, 5, 5’-tetramethylbenzidine (TMB; Sigma) was then added sequentially. Absorbance at 450 nm was measured using an ELISA reader (Ultra 384; Tecan, Research Triangle Park, NC). The percent inhibition by the peptides and the IC50 were calculated, as previously described.
(In general: In an ELISA, binding on a coated surface is turned into a signal by an enzyme label.)

The subject of data set [4] is HIV-1 IIIB. Put plainly: Inhibitors alone or in combination against HIV-1 IIIB. The following applies: mixture N6 / IBP-CP24, HIV-1 IIIB. It is filed as cell-based. As for the experimental part:
The samples were serially diluted and tested for their inhibitory activity on HIV-1 infection as described above. The data were analyzed for synergistic effect by calculating the combination index (CI) with the CalcuSyn software. CI values of <0.95 and >1.05 indicate synergy and antagonism, respectively. CI <0.1, 0.1–0.3, 0.3–0.7, 0.7–0.85, and 0.85–0.90 indicate very strong synergism, strong synergism, synergism, moderate synergism, and slight synergism, respectively. Fold of dose reduction was calculated with the ratio of concentrations of inhibitor testing alone and in combination.

For data set [5], the system named is T20-resistant strains. The experiment in a line: Inhibition of T20-resistant HIV-1 variants, average. It is filed as cell-based. Conditions: comparison with CP24.
Description: Briefly, 1×10^5/mL MT-2 or M7 cells were infected with different HIV-1 viruses at 100 TCID50 (50% tissue culture infective dose) in the presence or absence of peptides at graded concentrations overnight. Then the culture supernatants were replaced with equal volume of fresh medium. On the fourth day post-infection, supernatants were collected and mixed with equal volume of 5% Triton X-100. […] The IC50 values were calculated with CalcuSyn software [35–36], and inhibition curves of best fit were generated with GraphPad Prism.
Data set [6] deals with ICR mice. Put plainly: Safety of IBP-CP24 for ICR mice. The format is in vivo. Conditions: for serum ALT level / serum creatinine level: i.p., CP24 10 mg/kg, IBP-CP24 10 or 100 mg/kg, before and 5 h, 1, 4 days post-injection. As for the experimental part: Body weight changes of mice at different time points were monitored. Creatinine and ALT in the sera were measured by using the creatinine and ALT assay kits (NJJCBIO, Nanjing, China) before injection and 5 h, 1, and 4 days post-injection, respectively. All mice were sacrificed at day 15 post-injection, and the livers and kidneys were collected for haematoxylin and eosin (H&E) staining.

In data set [7] the test system is Pseudoviruses. The experiment in a line: Inhibition of pseudotyped HIV-1 infection, panel average. It is filed as cell-based. Conditions: average IC50 of 12 pseudotyped strains. The source says:
HIV-1 pseudoviruses were generated, as described previously.

Data set [8] deals with HIV-1 JR-CSF. Put plainly: Prophylactic efficacy against HIV-1 challenge in humanized mice. It is filed as in vivo, humanized NRG (NRG-hu HSC) mice. The following applies: for cell-associated HIV-1 DNA and RNA in spleen and bone marrow: day 28 post-infection, real-time PCR; for mice HIV-1 viremia-positive at 7 dpi / mice with viremia at 14 dpi / viral load at 7 dpi: humanized mice; for mice HIV-1 viremia-positive at 7 dpi: 20 mg/kg i.p. 2 h before challenge, 6 h post-infection and daily for 3 days, CP24 n = 8, IBP-CP24 n = 7; for mice with viremia at 14 dpi / viral load at 7 dpi: 20 mg/kg i.p. prophylactic regimen; for viral load at 7 dpi: plasma HIV-1 RNA. As for the experimental part:
The mice were challenged with HIV-1 JR-CSF (5 ng p24/mouse) through retro-orbital injection at 2 h post-treatment. Then the mice were treated with PBS or peptides at 6 hours post-infection and once every day for 3 consecutive days. Plasma samples were obtained for viral load determination at days 0, 7, 14, 21 and 28 post-infection.
HIV-1 genomic RNA was purified from plasma by using the QIAamp Viral RNA Mini Kit. The RNA was reverse-transcribed and quantitatively detected by real-time PCR with the TaqMan Fast Virus 1-Step PCR kit (Thermo Fisher Scientific). We used the forward primer 5’-[…]-3’ and the reverse primer 5’-[…]-3’ to detect the HIV gag gene. The probe (FAM-[…]-QSY7) used for detection was ordered from Applied Biosystems, and the reactions were set up following the manufacturer’s guidelines and were run on the QuantStudio 6 Flex PCR system (Applied Biosystems). The limit of detection of each real-time PCR was 4 copies per reaction. Accordingly, owing to the relatively small volume of plasma in mice (about 50–100 μL total blood), the limit of detection was 400 copies/mL plasma. The copy numbers below the detectable limit were set as 1. Triplicate reactions were performed for each sample.
To evaluate cell-associated HIV-1 DNA, total DNA was extracted from mouse spleen and bone marrow cells using the DNeasy Mini Kit (Qiagen). HIV-1 DNA was quantified by real-time PCR. DNA from serial dilutions of ACH2 cells, which contain 1 copy of the HIV genome in each cell, was used to create a standard curve.
To detect cell-associated HIV-1 RNA, total cell RNA was extracted from mouse spleen and bone marrow cells using the RNeasy Plus Mini Kit (Qiagen). The RNA was reverse-transcribed to cDNA and then quantified by real-time PCR, as described above. DNA from serial dilutions of ACH2 cells was used to generate a standard curve.
(In general: Real-time PCR tracks product formation cycle by cycle.)

The test system of data set [9] is HIV-1 JR-CSF. Put plainly: Therapeutic efficacy in humanized mice with established HIV-1 infection. The format is in vivo, humanized NRG mice. The following applies: n = 4. The protocol: Humanized mice were inoculated with HIV-1 JR-CSF (10 ng p24/mouse) through retro-orbital injection and randomly assigned to 2 groups (4 mice in each group).
HIV-1 genomic RNA was purified from plasma by using the QIAamp Viral RNA Mini Kit. The RNA was reverse-transcribed and quantitatively detected by real-time PCR with the TaqMan Fast Virus 1-Step PCR kit (Thermo Fisher Scientific). We used the forward primer 5’-[…]-3’ and the reverse primer 5’-[…]-3’ to detect the HIV gag gene. […] The limit of detection of each real-time PCR was 4 copies per reaction. Accordingly, owing to the relatively small volume of plasma in mice (about 50–100 μL total blood), the limit of detection was 400 copies/mL plasma. The copy numbers below the detectable limit were set as 1. Triplicate reactions were performed for each sample.

As to `CC[C@H](C)[C@H](NC(=O)[C@H](CC(C)C)NC(=O)[C@H](CCC(=O)O)NC(=O)[C@H](CCC(=O)O)NC(=O)[C@@H](NC(=O)[C@H](CCCCN)NC(=O)[C@H](CCCCN)NC(=O)[C@@H](NC(=O)[C@H](Cc1ccc(O)cc1)NC(=O)[C@H](CCC(=O)O)NC(=O)[C@H](CCC(=O)O)NC(=O)[C@@H](NC(=O)[C@H](CCCCN)NC(=O)[C@H](CCCCN)NC(=O)[C@H](CC(=O)O)NC(=O)[C@H](Cc1c[nH]c2ccccc12)NC(=O)[C@H](CCC(=O)O)NC(=O)[C@H](CCC(=O)O)NC(=O)[C@H](Cc1c[nH]c2ccccc12)NC(=O)[C@@H](NC(=O)[C@H](CCSC)NC(=O)[C@@H](NC(=O)[C@@H]1CSSC[C@H](NC(=O)[C@@H](N)CC(=O)O)C(=O)N[C@@H](C)C(=O)N[C@@H](Cc2c[nH]c3ccccc23)C(=O)N[C@@H](Cc2c[nH]cn2)C(=O)N[C@@H](CC(C)C)C(=O)NCC(=O)N[C@@H](CCC(=O)O)C(=O)N[C@@H](CC(C)C)C(=O)N[C@@H](C(C)C)C(=O)N[C@@H](Cc2c[nH]c3ccccc23)C(=O)N1)[C@@H](C)O)[C@@H](C)O)[C@@H](C)CC)[C@@H](C)O)[C@@H](C)CC)C(=O)N[C@@H](CCCCN)C(=O)N[C@@H](CCCCN)C(=O)N[C@@H](CO)C(=O)O` [IBP-CP24] (H-DCAWHLGELVWCTMTWEEWDKKIEEYTKKIEELIKKS-OH; disulfide 2-12; N-terminus and C-terminus assumed), the “fold of CP24 in cell-cell fusion inhibition” value in data set [1] is “about 1.2 fold”. The “DF-IC50 (dilution fold of serum causing 50% inhibition of HIV-1 IIIB infection)” value in [2] (sera 2 h post-injection) is on record as 35. In addition, the “DF-IC50 (dilution fold of serum causing 50% inhibition of HIV-1 IIIB infection)” value in [2] (sera 8 h post-injection) turned out to be 16. The “inhibition of 6-HB formation between N36 and C34” value in data set [3] is listed as “much stronger inhibition on 6-HB formation than CP24 itself”. Further, the Dose reduction in data set [4] turned out to be 3.6 fold. Besides, in data set [5], the “average IC50 fold of that of CP24, T20-resistant strains” value is listed as “about 1.5 fold”. Also, the “in vivo toxicity, overall” value in data set [6] (10 and 100 mg/kg i.p.) is “no obvious in vivo toxicity”. Further, the “H&E stained sections of liver and kidneys” value in [6] (day 15 post-injection, versus PBS) is “no pathological abnormality”. In data set [6] (versus PBS), the “serum ALT level” value is listed as “no significant difference” and the serum creatinine level entry is on record as “no significant difference”. Also, in data set [7], the “fold more potent than CP24, pseudotyped strains” value is recorded as ~4.9 fold and the “fold more potent than T20, pseudotyped strains” value is recorded as “about 24.2 fold”. Further, in [8], the “cell-associated HIV-1 DNA and RNA in spleen and bone marrow” value is “undetectable”; the “mice HIV-1 viremia-positive at 7 dpi” value is recorded as 28.5%; the “mice with viremia at 14 dpi” value is 28.5%; the “viral load at 7 dpi” value is “about 2.5 log10 copies/mL”. In data set [9] (20 mg/kg i.p. once daily for 14 days, coinjected with human IgG 40 mg/kg twice weekly), the “mean Δlog10 plasma HIV-1 RNA” value is listed as 0.13 log10. Also, the “average decrease of plasma HIV-1 RNA” value in [9] (day 35 post-treatment, after twice daily 20 mg/kg for 21 days plus human IgG) came out at 1.42 log10.
As to “MTWEEWDKKIEEYTKKIEELIKKS [CP24, reference compound]”, in data set [6] (versus PBS), the “serum ALT level” value is listed as “no significant difference” and the serum creatinine level entry is on record as “no significant difference”. Further, in data set [8], the “cell-associated HIV-1 DNA and RNA in spleen and bone marrow” value was “high levels”; the “mice HIV-1 viremia-positive at 7 dpi” value is reported as 50%; the “mice with viremia at 14 dpi” value worked out at 62.5%; the “viral load at 7 dpi” value is reported as “about 3.6 log10 copies/mL”.

These data come from publication PMC6894747 (PLoS Pathogens, 2019).
